Source: ChEMBL document CHEMBL1201862, “PubChem BioAssay data set” (2004)
Active and inactive are the calls of the source.

Experiments:
Bcl-2-like protein 10 = biological target: T1, Bcl-2-like protein 10 (Homo sapiens, UniProt Q9HD36); experiment: Bcl-B/TR3 peptide binding disruption – biochemical, fluorescence polarization, FITC-TR3 peptide, selectivity assay for Bfl-1 inhibitor project, primary screen (AID 748);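 note: fluorescence polarization from a fluorescein-labelled TR3 peptide binding purified Bcl-B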
T1 sequence (Q9HD36 whole entry): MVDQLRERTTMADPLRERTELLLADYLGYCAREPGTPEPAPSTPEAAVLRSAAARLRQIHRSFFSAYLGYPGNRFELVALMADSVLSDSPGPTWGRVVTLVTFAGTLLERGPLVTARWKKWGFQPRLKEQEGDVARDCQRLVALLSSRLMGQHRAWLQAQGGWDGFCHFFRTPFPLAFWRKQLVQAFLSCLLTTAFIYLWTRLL

Estrogen receptor beta [1] = biological target: T2, Estrogen receptor beta (Homo sapiens, UniProt Q92731);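 note: recombinant ER-beta bound to coactivator SRC1 peptide in presence of estradiol agonist; inhibitors block coactivator peptide binding and lower the FRET signal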
T2 sequence (Q92731 whole entry): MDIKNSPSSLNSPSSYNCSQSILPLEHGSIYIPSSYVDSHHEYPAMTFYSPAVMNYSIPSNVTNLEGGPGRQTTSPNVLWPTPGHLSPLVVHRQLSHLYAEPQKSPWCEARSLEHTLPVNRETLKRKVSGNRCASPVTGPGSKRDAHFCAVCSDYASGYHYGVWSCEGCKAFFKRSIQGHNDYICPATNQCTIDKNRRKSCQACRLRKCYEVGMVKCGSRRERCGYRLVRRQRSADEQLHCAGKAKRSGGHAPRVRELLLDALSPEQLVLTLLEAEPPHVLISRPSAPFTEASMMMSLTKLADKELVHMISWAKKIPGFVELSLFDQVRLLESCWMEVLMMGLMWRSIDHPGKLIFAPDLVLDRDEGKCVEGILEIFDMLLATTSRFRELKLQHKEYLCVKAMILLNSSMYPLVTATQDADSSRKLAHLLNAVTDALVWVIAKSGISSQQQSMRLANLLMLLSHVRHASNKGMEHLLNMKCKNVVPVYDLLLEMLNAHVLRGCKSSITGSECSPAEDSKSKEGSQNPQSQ

Estrogen receptor beta [2] = biological target: T2, Estrogen receptor beta; experiment: blockers of SRC-3 recruitment to ERβ – biochemical, ELISA, streptavidin-HRP readout, orthogonal assay, confirmation (AID 1060)
[3] = HIV-1 Vif–A3G interaction blockers – biochemical, TR-FRET, GST-Vif 1-94, biotin-A3G peptide, dose response retest, primary screen (AID 1117319); format: functional;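 note: TR-FRET signal of purified GST-Vif binding a biotinylated A3G peptide; inhibitors lower the FRET signal by blocking Vif and A3G binding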
Cytochrome P450 3A4 = Cytochrome P450 3A4 (Homo sapiens, UniProt P08684); conditions: Potency;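 note: confirmatory qHTS run detecting inhibitors and substrates of CYP3A4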
Sequence of Cytochrome P450 3A4 (P08684 whole entry): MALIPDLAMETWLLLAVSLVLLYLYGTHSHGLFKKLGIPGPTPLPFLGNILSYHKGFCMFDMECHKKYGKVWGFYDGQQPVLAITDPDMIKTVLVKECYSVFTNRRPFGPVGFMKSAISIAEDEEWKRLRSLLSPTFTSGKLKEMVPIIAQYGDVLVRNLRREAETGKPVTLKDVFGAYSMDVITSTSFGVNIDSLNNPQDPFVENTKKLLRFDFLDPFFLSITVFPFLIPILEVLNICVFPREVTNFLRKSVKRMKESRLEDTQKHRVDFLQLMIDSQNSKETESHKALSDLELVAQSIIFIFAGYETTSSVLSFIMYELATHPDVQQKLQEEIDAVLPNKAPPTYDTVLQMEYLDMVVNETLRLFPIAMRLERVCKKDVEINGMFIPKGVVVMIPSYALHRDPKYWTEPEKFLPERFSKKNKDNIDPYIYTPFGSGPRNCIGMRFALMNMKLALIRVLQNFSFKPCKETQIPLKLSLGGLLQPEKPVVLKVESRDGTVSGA

[4] = biological target: Peroxisome proliferator-activated receptor gamma/Nuclear receptor coactivator 2 (Homo sapiens, UniProt P37231); format: functional;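 note: agonist potency for raising coactivator recruitment to the receptor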
[5] = biological target: Peroxisome proliferator-activated receptor gamma/Nuclear receptor coactivator 1 (Homo sapiens, UniProt P37231); format: functional;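 note: agonist potency as compounds enhance coactivator SRC-1 recruitment to PPARgamma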
Sequence of Peroxisome proliferator-activated receptor gamma/Nuclear receptor coactivator 1 (P37231 whole entry): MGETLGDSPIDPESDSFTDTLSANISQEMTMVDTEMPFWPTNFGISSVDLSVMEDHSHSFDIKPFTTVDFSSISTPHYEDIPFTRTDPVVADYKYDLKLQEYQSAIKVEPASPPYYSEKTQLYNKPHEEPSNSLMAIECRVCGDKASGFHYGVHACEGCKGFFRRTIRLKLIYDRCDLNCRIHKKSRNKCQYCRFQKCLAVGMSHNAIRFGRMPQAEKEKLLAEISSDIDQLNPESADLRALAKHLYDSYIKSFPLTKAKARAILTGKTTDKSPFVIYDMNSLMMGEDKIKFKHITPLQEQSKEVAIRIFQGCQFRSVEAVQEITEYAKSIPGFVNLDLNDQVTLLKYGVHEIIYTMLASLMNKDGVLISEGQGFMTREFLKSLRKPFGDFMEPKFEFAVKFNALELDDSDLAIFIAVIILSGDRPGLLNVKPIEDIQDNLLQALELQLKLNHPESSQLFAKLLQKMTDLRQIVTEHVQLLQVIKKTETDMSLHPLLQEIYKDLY
Sequence of Peroxisome proliferator-activated receptor gamma/Nuclear receptor coactivator 1 (Q15788 whole entry, further chain): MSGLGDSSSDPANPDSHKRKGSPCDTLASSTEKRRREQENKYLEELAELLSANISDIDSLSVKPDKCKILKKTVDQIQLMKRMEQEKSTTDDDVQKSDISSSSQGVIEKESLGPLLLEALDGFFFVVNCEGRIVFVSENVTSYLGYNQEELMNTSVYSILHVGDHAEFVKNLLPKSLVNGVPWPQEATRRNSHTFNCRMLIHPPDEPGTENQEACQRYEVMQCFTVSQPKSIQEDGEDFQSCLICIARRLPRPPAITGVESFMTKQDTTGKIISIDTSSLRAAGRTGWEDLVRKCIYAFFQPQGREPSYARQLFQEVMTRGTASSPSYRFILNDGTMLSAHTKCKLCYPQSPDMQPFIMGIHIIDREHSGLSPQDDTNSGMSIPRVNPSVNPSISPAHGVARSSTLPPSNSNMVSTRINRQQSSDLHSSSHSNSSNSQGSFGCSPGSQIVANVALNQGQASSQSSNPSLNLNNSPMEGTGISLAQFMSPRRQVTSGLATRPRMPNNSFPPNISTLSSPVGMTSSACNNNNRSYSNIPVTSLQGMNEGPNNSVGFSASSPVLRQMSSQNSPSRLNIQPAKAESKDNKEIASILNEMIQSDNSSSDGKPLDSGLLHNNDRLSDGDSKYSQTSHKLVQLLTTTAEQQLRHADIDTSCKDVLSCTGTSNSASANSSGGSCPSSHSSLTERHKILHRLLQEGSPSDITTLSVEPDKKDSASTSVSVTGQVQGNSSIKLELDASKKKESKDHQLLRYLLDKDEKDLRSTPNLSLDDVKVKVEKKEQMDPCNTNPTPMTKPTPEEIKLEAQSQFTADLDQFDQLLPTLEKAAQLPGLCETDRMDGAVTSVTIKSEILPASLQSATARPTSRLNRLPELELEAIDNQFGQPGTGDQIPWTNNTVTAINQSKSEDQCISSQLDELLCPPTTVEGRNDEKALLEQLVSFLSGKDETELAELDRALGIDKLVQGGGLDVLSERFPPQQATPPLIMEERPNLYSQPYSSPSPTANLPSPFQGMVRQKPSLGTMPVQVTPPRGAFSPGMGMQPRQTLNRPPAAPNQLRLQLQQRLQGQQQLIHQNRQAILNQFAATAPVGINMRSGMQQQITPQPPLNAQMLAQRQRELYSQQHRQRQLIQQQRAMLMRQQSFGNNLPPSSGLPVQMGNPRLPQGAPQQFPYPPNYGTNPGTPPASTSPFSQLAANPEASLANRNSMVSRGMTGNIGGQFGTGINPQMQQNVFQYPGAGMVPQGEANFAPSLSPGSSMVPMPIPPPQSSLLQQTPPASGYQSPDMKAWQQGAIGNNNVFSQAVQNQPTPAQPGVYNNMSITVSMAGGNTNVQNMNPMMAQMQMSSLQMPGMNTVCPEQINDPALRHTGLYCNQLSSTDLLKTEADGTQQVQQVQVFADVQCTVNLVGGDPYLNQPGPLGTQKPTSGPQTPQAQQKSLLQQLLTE

[6] = biological target: Peroxisome proliferator-activated receptor gamma/Nuclear receptor coactivator 3 (Homo sapiens, UniProt P37231); format: functional;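 note: agonist potency for raising coactivator recruitment to the receptor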
Sequence of Peroxisome proliferator-activated receptor gamma/Nuclear receptor coactivator 3 (P37231 whole entry): as the sequence (P37231 whole entry) above
Sequence of Peroxisome proliferator-activated receptor gamma/Nuclear receptor coactivator 3 (Q9Y6Q9 whole entry, further chain): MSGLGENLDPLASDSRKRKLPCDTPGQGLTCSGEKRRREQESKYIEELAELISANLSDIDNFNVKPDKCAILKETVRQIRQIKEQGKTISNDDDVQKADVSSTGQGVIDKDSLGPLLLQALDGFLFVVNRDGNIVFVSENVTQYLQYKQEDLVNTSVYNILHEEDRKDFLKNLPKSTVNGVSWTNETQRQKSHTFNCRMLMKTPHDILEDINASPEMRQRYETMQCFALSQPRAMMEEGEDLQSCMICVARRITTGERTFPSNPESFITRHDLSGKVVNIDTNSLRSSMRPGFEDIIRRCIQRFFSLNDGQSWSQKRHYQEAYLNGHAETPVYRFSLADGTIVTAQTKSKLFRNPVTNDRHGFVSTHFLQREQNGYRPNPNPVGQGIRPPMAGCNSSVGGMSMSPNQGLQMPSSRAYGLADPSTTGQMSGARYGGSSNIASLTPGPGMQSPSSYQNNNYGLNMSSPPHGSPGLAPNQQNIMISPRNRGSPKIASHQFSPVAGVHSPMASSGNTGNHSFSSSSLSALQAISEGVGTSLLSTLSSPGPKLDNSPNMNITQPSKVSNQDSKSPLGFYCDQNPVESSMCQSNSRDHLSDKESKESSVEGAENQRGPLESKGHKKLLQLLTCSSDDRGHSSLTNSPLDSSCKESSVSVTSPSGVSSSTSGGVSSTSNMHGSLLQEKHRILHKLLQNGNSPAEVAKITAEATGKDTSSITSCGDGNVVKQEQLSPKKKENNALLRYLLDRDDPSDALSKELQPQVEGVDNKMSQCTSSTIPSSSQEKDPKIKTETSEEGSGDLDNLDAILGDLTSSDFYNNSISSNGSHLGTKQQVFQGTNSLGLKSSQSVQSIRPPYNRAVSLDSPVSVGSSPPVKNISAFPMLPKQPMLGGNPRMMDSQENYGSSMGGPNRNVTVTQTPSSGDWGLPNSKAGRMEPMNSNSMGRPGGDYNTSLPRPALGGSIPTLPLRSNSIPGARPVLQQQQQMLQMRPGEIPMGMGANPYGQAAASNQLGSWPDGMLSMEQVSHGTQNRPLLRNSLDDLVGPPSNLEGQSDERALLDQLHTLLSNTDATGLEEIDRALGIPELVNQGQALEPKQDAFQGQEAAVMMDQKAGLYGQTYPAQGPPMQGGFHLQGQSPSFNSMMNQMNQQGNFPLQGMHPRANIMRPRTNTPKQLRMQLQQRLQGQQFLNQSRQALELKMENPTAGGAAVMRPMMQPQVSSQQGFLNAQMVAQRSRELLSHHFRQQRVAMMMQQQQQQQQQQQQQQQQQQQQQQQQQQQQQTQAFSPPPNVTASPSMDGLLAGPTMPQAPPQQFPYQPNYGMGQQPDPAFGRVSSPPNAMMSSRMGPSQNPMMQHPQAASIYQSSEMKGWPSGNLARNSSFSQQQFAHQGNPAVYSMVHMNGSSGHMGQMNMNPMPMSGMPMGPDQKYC

[7] = biological target: Luciferin 4-monooxygenase (Photinus pyralis, UniProt P08659); experiment: Counter Screen for Luciferase-based Assay Positives. [Related pubchem assays: 620, 618, 411 ]
HT-1080 = experiment: HT1080 cell viability loss – fluorescence readout (AID 620); format: functional, cell-based; conditions: Homo sapiens
[8] = blockers of bursicon-stimulated LGR2 cAMP reporter – cell-based, HEK293, CRE-luciferase reporter, cherry pick, set 2, dose response (AID 743343); format: functional;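 note: transfected cells were stimulated with diluted bursicon conditioned medium after compound addition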
[9] = blockade of melanocortin 4 receptor signaling – cell-based, plate reader, cherry pick, counter-screen for LGR2 antagonist project, dose response (AID 743444); format: functional;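 note: transfected HEK 293 cells stimulated with alpha-MSH peptide; potency of inhibitors of the alpha-MSH evoked signal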
Estrogen receptor = biological target: T3, Estrogen receptor (Homo sapiens, UniProt P03372);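 note: potency for inhibiting coactivator peptide recruitment to the receptor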
T3 sequence (P03372 whole entry): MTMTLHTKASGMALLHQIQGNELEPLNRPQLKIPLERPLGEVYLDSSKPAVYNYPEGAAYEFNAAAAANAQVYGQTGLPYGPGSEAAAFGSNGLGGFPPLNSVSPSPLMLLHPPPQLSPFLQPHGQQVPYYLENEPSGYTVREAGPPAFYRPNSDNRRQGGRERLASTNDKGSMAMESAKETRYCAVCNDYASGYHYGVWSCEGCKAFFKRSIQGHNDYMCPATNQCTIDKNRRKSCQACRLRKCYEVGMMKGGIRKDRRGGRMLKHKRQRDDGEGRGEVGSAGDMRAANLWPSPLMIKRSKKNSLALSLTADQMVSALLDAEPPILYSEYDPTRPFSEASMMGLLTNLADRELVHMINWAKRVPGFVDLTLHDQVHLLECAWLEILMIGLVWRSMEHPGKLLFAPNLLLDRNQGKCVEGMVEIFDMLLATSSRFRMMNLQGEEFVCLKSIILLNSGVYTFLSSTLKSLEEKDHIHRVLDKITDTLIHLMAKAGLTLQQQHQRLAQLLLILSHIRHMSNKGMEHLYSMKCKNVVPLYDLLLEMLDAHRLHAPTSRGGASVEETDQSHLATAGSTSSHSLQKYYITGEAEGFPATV

[10] = luciferase reporter signal suppression in cells – H4 neuroglioma cells, luminescence, dose response (AID 1990); format: functional, cell-based
[11] = Luminescence Cell-Based Dose Response HTS to Identify Inhibitors of 5'UTR Stem-Loop Driven Prion Protein mRNA Translation in H4 Neuroglioblastoma Cells. [Related pubchem assays: 1827 (Project Summary), 1813 (Primary HTS)]; format: functional
[12] = alpha-synuclein stem-loop luciferase translation blockers – H4 neuroglioma cells, luminescence, confirmation (AID 1988); format: functional, cell-based
[13] = HPDE-C7 pancreatic duct cell viability loss – fluorescence, HTS (AID 430); format: functional, cell-based; conditions: Homo sapiens
[14] = microbe, parasite or virus in culture; format: functional; conditions: Mycobacterium tuberculosis
[15] = viability loss of HPDE-C7K cells – cell-based, fluorescence, HTS, primary screen (AID 431); format: functional; conditions: Homo sapiens
[16] = viability of PTEN-deleted HCT116 cells – cell-based, HCT116 PTEN knockout, dose response (AID 1047); format: functional;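 note: HCT116 colon tumor cells with PTEN knocked out; cells exposed to compound for 60 hours before readout; potency for loss of cell viability measured by luminescence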
[17] = viability of HCT116 lacking mutant beta-catenin – cell-based, human colon tumor, dose response (AID 1045); format: functional;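 note: HCT116 colon tumor cells with beta catenin knocked out; cells exposed to compound for 60 hours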
[18] = HEK-293T cell viability reduction – luminescence, B-cell screen hits, cytotoxicity control for BCR NF-kB inhibitor project, dose response (AID 489021); format: functional, cell-based;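 note: HEK-293T cells carrying an NF-kB luciferase reporter; cells exposed to compound for about 14 hours before viability readout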
Vero = experiment: viability of Vero cells under compound – cytotoxicity control for flavivirus capping enzyme inhibitors (AID 588742); format: functional; conditions: Chlorocebus sabaeus
ORF 73 = biological target: T4, ORF 73 (Human herpesvirus 8, UniProt O40947); experiment: KSHV LANA DNA-binding disruption – biochemical, fluorescence polarization, cherry-picked samples, dose response (AID 504725); set-up: species or system Human gammaherpesvirus 8;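 note: fluorescence polarization of a labeled DNA duplex reporting LANA DNA binding; potency is for inhibitors that block LANA binding to the DNA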
T4 sequence (O40947 whole entry): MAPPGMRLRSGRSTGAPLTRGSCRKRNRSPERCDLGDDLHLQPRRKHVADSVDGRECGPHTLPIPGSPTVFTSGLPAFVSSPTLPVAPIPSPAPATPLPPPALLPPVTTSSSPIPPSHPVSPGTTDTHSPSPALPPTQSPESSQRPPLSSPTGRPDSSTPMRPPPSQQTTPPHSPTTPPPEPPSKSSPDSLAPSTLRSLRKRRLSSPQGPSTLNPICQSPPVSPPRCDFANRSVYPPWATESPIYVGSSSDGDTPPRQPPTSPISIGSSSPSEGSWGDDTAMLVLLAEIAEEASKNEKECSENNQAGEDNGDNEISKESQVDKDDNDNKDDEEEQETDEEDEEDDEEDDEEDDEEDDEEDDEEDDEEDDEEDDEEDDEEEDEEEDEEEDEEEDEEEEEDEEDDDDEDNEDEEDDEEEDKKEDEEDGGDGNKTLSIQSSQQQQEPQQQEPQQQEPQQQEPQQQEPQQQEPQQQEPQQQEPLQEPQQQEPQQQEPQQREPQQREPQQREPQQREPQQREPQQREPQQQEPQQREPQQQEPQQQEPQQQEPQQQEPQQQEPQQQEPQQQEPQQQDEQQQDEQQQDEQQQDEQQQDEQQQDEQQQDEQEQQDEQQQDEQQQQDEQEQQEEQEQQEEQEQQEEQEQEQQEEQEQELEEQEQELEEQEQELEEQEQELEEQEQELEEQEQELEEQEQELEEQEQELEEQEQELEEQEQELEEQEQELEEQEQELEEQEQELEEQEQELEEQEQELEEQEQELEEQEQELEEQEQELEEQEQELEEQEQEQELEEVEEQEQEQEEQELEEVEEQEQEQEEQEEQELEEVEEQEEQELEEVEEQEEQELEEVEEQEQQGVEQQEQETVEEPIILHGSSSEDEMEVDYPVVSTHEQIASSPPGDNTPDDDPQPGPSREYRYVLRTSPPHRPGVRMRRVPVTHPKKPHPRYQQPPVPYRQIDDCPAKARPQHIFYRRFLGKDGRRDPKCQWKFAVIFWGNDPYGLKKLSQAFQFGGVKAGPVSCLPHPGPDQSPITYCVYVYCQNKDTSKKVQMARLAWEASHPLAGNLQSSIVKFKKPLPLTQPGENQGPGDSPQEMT

[19] = biological target: T5, Endoribonuclease toxin MazF (Escherichia coli K-12, UniProt P0AE70); experiment: activation of MazEF endoribonuclease cleavage – biochemical, fluorescence, single-stranded RNA substrate, uHTS hits, dose response (AID 588481); format: functional
T5 sequence (P0AE70 whole entry): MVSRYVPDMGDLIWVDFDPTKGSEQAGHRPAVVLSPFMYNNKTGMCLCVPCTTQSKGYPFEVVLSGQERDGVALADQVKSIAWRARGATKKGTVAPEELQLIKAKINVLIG

[20] = biological target: T5, Endoribonuclease toxin MazF; experiment: substrate-only fluorescence increase artefacts – biochemical, single-stranded RNase substrate, counter-screen for MazEF activator project, dose response (AID 588502); format: functional
[21] = biological target: T6, Corticotropin-releasing factor receptor 2/Corticotropin-releasing factor-binding protein (Homo sapiens, UniProt P24387+Q13324); experiment: activators of CRF receptor 2 with binding protein – uHTS hits, confirmation (AID 602473); format: functional; conditions: read-out: EC50_Mean
T6 sequence (Q13324 whole entry): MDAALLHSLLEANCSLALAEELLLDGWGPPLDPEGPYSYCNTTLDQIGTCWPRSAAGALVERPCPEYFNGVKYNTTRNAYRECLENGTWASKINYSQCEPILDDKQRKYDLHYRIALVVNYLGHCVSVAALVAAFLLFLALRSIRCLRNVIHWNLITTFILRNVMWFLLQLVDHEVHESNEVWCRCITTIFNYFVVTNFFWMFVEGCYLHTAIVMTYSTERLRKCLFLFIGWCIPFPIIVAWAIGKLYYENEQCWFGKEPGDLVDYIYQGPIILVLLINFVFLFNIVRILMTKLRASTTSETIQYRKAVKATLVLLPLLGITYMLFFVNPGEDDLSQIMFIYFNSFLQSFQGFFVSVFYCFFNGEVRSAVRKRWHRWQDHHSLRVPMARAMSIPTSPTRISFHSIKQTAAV
T6 sequence (P24387 whole entry): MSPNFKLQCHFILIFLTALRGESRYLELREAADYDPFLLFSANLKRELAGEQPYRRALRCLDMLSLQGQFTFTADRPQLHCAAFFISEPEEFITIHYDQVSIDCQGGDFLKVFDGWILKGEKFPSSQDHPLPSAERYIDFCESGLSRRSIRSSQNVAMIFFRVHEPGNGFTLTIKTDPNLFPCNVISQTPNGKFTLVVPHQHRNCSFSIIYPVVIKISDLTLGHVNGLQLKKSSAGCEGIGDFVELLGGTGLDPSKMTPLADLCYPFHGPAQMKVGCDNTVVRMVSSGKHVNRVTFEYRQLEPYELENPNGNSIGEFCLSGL

HeLa = experiment: viability loss in HeLa cells – cell-based, 24 h, cherry-picked samples, cytotoxicity control, dose response (AID 504726); format: functional; conditions: Homo sapiens;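 note: potency for cytotoxicity as loss of luminescence signal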

CCc1ccccc1NC(=O)c1cc2ncc(Br)cn2n1
IC50 (Bcl-2-like protein 10): 62.5 µM (inactive)
IC50 (Estrogen receptor beta [1]): 31 µM (not active)
IC50 (Estrogen receptor beta [2]): 14.7 µM (not active)
IC50 [3]: > 100 µM (active)

C[C@@H]1CCC2[C@](C)(CO)C(O)CC[C@@]2(C)[C@@]12CC[C@](CO)(CCO)O2 (stereo partly specified)
AC50 (Cytochrome P450 3A4): 25.1 µM (inconclusive)

Oc1ccc(Cl)c(Cl)c1Cl
AC50 (Cytochrome P450 3A4): 15.8 µM (inconclusive)

O=C(C1=C[C@@H](c2ccc(C(F)(F)F)cc2)C[C@@H](OCCCCO)O1)N1CCN(Cc2ccc3c(c2)OCO3)CC1
EC50 [4]: > 79.4 µM (not active)
EC50 [5]: > 79.4 µM (not active)
EC50 [6]: > 79.4 µM (not active)

CCCCCc1ccc(-c2ccc(C(=O)O)cc2)nc1
EC50 [7]: 43.4 µM (active)
EC50 (HT-1080): > 50 µM (not active)
AC50 [8]: 13.9 µM (active)
AC50 [9]: 14.1 µM (active)

CC(C)NC(=O)NC(=O)CSc1ccccc1F
EC50 [4]: > 79.4 µM (not active)
EC50 [5]: > 79.4 µM (not active)
EC50 [6]: > 79.4 µM (not active)

Cc1ccc(C(=O)NCC(=O)OCC(=O)c2c(N)n(C)c(=O)n(C)c2=O)s1
IC50 (Estrogen receptor): > 50 µM (not active)
IC50 (Estrogen receptor beta [1]): 6.84 µM (active)
IC50 (Estrogen receptor beta [2]): 6.1 µM (not active)

CC1CC(C)(C)Nc2ccc(OC(=O)c3ccco3)cc21 (stereo unspecified)
EC50 [10]: 8.25 µM (active)
EC50 [7]: < 0.2 µM (active)
EC50 [11]: 14.8 µM (active)
EC50 [12]: 20.1 µM (active)
EC50 [13]: 10.1 µM (active)
CC50 [14]: 30 µM (active)
EC50 [15]: 9.77 µM (active)
EC50 [16]: 8.58 µM (active)
EC50 (HT-1080): > 50 µM (not active)
EC50 [17]: 8.18 µM (active)
IC50 [18]: 50.9 µM (inactive)
CC50 (Vero): > 40 µM (active)

Clc1ccc(-c2nnc3sc(-c4ccc(Br)o4)nn23)cc1
EC50 [4]: 39.7 µM (not active)
EC50 [5]: > 79.4 µM (not active)
EC50 [6]: > 79.4 µM (not active)
AC50 (ORF 73): 27.1 µM (active)
EC50 [19]: > 99 µM (inactive)
EC50 [20]: > 99 µM (inactive)
EC50 [21]: > 53 µM (inactive)

CN(C)S(=O)(=O)c1cccc(N2C(=O)CC3(CCCCC3)CC2=O)c1
AC50 (HeLa): > 350 µM (inactive)
AC50 (ORF 73): 76.9 µM (active)

CC(C)=CCC1=C(O)C(=O)c2ccccc2C1=O [LAPACHOL]
AC50 (Cytochrome P450 3A4): 25.1 µM (inconclusive)
